14 molecules from ChEMBL document CHEMBL5291721, “A preclinical secondary pharmacology resource illuminates target-adverse drug reaction associations of marketed drugs” (Nat Commun, 2023) can be followed below.

Assay [1] addresses T1, 5-hydroxytryptamine receptor 3A (Homo sapiens, UniProt P46098).
T1 sequence (P46098 whole entry): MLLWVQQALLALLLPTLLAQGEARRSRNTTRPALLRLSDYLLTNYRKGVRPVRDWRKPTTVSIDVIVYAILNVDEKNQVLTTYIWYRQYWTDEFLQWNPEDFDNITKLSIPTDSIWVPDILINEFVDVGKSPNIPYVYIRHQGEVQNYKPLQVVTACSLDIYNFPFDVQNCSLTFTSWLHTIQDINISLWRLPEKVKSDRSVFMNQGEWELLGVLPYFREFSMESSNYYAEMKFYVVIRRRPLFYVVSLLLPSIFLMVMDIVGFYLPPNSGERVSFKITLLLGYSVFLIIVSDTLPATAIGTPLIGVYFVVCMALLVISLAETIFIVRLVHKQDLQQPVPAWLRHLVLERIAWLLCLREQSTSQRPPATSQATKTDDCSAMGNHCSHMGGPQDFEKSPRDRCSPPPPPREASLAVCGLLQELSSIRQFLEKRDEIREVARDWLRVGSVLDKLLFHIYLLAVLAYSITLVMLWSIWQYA
The format is functional.

In assay [2] the target is T2, Prostaglandin G/H synthase 1 (Rattus norvegicus, UniProt Q63921).
T2 sequence (Q63921 whole entry): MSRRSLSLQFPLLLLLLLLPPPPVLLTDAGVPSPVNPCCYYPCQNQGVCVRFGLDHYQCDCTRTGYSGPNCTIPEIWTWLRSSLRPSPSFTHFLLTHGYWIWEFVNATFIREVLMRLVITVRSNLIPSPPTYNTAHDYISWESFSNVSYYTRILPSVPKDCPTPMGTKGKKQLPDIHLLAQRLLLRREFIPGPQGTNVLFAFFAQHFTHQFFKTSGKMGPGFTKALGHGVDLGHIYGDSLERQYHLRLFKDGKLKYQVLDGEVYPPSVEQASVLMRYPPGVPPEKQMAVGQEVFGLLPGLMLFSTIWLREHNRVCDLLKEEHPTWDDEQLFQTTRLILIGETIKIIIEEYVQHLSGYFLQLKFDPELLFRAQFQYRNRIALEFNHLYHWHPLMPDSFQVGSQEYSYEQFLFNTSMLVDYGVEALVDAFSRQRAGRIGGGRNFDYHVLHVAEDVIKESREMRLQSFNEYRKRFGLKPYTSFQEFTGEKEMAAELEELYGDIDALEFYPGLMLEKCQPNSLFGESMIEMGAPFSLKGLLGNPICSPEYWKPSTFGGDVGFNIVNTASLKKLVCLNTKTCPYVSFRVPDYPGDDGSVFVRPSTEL
The format is functional.

Assay [3] deals with T3, Cholecystokinin receptor type A (Homo sapiens, UniProt P32238).
T3 sequence (P32238 whole entry): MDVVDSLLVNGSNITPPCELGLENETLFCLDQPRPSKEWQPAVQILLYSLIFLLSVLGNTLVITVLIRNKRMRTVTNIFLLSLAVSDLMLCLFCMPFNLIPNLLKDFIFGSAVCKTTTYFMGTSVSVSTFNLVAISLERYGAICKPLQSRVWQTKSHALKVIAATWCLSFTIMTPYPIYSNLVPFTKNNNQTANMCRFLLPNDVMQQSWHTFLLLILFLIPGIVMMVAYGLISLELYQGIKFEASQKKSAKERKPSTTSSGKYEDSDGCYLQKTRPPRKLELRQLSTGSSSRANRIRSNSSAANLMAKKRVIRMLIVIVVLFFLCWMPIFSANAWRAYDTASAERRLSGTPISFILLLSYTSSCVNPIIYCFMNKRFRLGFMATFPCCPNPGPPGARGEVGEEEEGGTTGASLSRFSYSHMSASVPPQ

Assay [4] deals with cGMP-inhibited 3',5'-cyclic phosphodiesterase 3A (Homo sapiens, UniProt Q14432). The format is functional.
Sequence of cGMP-inhibited 3',5'-cyclic phosphodiesterase 3A (Q14432 whole entry): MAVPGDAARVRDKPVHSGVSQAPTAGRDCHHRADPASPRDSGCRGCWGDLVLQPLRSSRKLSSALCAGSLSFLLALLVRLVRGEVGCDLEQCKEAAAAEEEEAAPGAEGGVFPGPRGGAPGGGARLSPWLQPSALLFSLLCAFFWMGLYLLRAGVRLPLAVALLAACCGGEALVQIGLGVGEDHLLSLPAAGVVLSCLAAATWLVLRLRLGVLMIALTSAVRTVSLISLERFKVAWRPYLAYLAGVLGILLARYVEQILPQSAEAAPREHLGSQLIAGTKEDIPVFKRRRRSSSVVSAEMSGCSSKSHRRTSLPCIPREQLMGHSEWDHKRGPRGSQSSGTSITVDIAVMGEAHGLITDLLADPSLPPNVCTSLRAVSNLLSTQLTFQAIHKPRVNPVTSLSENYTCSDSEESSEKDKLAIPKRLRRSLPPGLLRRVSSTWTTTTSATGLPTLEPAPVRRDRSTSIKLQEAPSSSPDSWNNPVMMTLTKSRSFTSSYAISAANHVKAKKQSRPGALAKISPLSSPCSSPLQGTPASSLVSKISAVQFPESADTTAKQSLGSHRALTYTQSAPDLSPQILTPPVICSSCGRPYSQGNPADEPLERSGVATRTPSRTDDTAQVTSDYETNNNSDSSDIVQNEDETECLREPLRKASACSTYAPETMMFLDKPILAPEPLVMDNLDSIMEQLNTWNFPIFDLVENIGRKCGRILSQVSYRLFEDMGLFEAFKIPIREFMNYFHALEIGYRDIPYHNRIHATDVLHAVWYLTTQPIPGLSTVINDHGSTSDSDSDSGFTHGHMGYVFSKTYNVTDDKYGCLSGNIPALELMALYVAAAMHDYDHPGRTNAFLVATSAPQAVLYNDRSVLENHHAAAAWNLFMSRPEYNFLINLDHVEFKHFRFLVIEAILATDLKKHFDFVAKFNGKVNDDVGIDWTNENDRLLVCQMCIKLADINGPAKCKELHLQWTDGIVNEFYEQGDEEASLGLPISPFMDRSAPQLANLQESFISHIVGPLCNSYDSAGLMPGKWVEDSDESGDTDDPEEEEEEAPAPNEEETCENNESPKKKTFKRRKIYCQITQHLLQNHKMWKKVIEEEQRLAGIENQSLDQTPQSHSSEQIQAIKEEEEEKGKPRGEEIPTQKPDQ
For assay [5], the target named is T4, Muscarinic acetylcholine receptor M2 (Homo sapiens, UniProt P08172).
T4 sequence (P08172 whole entry): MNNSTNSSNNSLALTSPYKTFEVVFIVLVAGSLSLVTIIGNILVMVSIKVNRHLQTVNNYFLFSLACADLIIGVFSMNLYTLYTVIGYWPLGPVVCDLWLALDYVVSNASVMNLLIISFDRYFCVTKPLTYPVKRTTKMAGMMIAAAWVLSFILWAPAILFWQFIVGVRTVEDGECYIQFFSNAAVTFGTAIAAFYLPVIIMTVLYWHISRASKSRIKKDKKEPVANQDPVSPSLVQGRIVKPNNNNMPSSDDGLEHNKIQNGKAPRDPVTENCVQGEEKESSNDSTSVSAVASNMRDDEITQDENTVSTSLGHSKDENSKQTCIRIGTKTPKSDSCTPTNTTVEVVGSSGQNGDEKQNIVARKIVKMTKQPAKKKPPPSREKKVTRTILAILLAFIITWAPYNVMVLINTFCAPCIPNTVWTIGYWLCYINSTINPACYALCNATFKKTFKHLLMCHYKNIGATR
The format is functional, cell-based.

Assay [6] addresses T5, Alpha-2A adrenergic receptor (Homo sapiens, UniProt P08913).
T5 sequence (P08913 whole entry): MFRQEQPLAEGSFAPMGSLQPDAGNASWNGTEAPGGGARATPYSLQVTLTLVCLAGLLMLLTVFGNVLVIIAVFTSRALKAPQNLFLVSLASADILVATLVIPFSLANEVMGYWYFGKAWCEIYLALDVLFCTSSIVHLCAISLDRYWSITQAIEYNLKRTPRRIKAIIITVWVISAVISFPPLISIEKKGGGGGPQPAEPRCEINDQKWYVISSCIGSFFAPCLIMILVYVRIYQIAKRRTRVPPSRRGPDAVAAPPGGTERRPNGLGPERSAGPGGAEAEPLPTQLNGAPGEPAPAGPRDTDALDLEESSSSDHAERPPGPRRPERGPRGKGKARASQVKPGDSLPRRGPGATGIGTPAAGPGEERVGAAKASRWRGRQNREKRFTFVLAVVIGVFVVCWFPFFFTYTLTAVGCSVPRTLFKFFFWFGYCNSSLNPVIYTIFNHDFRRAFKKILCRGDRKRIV
The format is functional, cell-based.

Assay [7] deals with Sodium-dependent noradrenaline transporter (Homo sapiens, UniProt P23975).
Sequence of Sodium-dependent noradrenaline transporter (P23975 whole entry): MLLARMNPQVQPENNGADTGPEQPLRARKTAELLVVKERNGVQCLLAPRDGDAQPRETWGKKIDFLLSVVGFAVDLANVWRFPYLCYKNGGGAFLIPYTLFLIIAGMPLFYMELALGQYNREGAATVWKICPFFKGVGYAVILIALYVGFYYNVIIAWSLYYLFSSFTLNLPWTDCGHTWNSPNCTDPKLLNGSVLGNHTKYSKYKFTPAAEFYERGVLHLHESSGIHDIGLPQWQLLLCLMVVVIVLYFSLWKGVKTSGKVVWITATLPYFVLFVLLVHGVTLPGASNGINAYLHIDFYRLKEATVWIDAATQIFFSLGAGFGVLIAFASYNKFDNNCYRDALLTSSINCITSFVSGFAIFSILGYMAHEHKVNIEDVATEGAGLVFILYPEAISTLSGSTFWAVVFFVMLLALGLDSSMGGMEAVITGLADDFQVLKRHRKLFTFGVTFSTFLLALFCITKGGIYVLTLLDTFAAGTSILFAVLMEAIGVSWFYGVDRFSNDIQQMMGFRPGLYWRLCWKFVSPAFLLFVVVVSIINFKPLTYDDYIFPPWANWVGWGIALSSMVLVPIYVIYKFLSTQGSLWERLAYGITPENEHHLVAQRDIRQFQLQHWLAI

As a reminder, the AC50 is the concentration giving half of the maximal activity seen. A lower AC50 goes with greater potency.

Structures are written as SMILES. A value given as a limit tells only on which side of the number the result lay.
Further: assay procedure not described here.

As for `CC(=O)NCCCS(=O)(=O)O` [ACAMPROSATE], the AC50 in assay [1], in assay [2], in assay [3], in assay [4], in assay [5] and in assay [6] was more than 30 µM throughout.
For the molecule `CC(C)C[C@H]1C(=O)N2CCC[C@H]2[C@]2(O)O[C@](NC(=O)[C@@H]3C=C4c5cccc6[nH]c(Br)c(c56)C[C@H]4N(C)C3)(C(C)C)C(=O)N12` [BROMOCRIPTINE], the AC50 was more than 30 µM in assay [1]; more than 30 µM in assay [2]; more than 30 µM in assay [3]; more than 30 µM in assay [7]; more than 30 µM in assay [4]; 28 µM in assay [5].
Regarding `Cc1ccc(-c2cc(C(F)(F)F)nn2-c2ccc(S(N)(=O)=O)cc2)cc1` [CELECOXIB], the AC50 in assay [1] was more than 30 µM; in assay [3] it was more than 10 µM; in assay [7], 15.7 µM; in assay [4], more than 30 µM; in assay [5], more than 10 µM; in assay [6], more than 10 µM.
On to `CC1=C(C(=O)O)N2C(=O)[C@@H](NC(=O)[C@H](N)c3ccccc3)[C@H]2SC1` [CEPHALEXIN ANHYDROUS], for which the AC50 in assay [1] was more than 30 µM; in assay [2] it was more than 30 µM; in assay [3], more than 30 µM; in assay [7], more than 10 µM; in assay [4], more than 30 µM; in assay [6] it was more than 30 µM.
As for `O=C(Cc1ccc(-c2ccccc2)cc1)Nc1ccccn1` [DIFENPIRAMIDE], the AC50 in assay [1], in assay [4], in assay [5] and in assay [6] was more than 30 µM each time.
`O=C(O)c1cc(O)ccc1O` [GENTISIC ACID]: half-maximal activity in assay [2] (AC50) was put at 18 µM.
Take `C[N+]1(C)CCC(OC(=O)C(O)(c2ccccc2)C2CCCC2)C1` (stereo not given) [GLYCOPYRRONIUM BROMIDE]: the half-maximal activity concentration (AC50) in assay [3] and in assay [4] was more than 30 µM in each case.
Regarding `Cc1nc([N+](=O)[O-])cn1-c1ccc([N+](=O)[O-])cc1` [NITREFAZOLE], the AC50 in assay [1], in assay [2], in assay [3], in assay [4], in assay [5] and in assay [6] was more than 30 µM throughout.
As for `CCCN1C[C@H](CSC)C[C@@H]2c3cccc4[nH]cc(c34)C[C@H]21` [PERGOLIDE], the AC50 in assay [1], in assay [2], in assay [3], in assay [7], in assay [4] and in assay [5] was more than 30 µM each time.
Regarding `C1CCC(C(CC2CCCCN2)C2CCCCC2)CC1` (stereo not given) [PERHEXILINE], the AC50 is more than 30 µM in assay [1]; more than 30 µM in assay [2]; more than 30 µM in assay [3]; 7.24 µM in assay [7]; more than 30 µM in assay [4]; 4.9 µM in assay [5].
As to `COc1cc(NC(C)CCCN)c2ncccc2c1` (stereo not given) [PRIMAQUINE], the values for the half-maximal activity concentration (AC50) in assay [2], in assay [3] and in assay [4] were more than 30 µM, more than 30 µM and 2.9 µM, respectively.
In the case of `Cc1c(C(=O)NN2CCCCC2)nn(-c2ccc(Cl)cc2Cl)c1-c1ccc(Cl)cc1` [RIMONABANT], the AC50 in assay [1] was more than 30 µM; in assay [2] it was more than 30 µM; in assay [3] it was 17 µM; in assay [7], 22 µM; in assay [4], 8.4 µM; in assay [6] it was more than 30 µM.
In the case of `CS(=O)(=O)c1ccc(C2=C(c3ccccc3)C(=O)OC2)cc1` [ROFECOXIB], the half-maximal activity concentration (AC50) in assay [1] was more than 10 µM; in assay [3], more than 30 µM; in assay [7], more than 10 µM; in assay [4] it was more than 30 µM; in assay [5] it was more than 30 µM; in assay [6], more than 30 µM.
Turning to `Clc1ccc2nsnc2c1NC1=NCCN1` [TIZANIDINE], the concentration at half-maximal activity (AC50) in assay [1] was more than 30 µM; in assay [2], more than 30 µM; in assay [3], more than 30 µM; in assay [7] it was more than 10 µM; in assay [4], more than 30 µM; in assay [5], more than 30 µM.
